Experimental data from patent publication US20070128217A1 (priority 2003, published 2007).

Legend:
[1] = system: control sera (pooled serum of ten healthy LUMC hospital workers; commercial negative donor pooled serum from the Dutch bloodbank); assay type: binding, human; set-up: Binding of Control serum LUMC to linear peptides / Binding of Control serum Blood-bank to linear peptides / Binding of Control serum LUMC to looped peptides / Binding of Control Serum Blood-Bank to Looped peptides / Binding of Control serum LUMC to linear peptides of the protein M of SARS-CoV Urbani / Binding of Control serum Blood-bank to linear peptides of the protein M of SARS-CoV Urbani / Binding of Control serum LUMC to looped peptides of the protein M of SARS-CoV Urbani / Binding of Control Serum Blood-Bank to Looped peptides of the protein M of SARS-CoV Urbani: unit not given here
[2] = system: rabbit serum obtained by immunizing a rabbit with the SARS-CoV strain Frankfurt 1; assay type: binding; set-up: Binding of a rabbit serum to linear peptides / Binding of a rabbit serum to looped peptides / Rabbit serum linear peptides / Rabbit serum looped peptides / Binding of a rabbit serum to linear peptides of protein N of SARS-CoV Urbani (Rabbit serum linear peptides) / Binding of a rabbit serum to looped/cyclic peptides of protein N of SARS-CoV Urbani (Rabbit serum looped peptides): unit not given here

Sequence | Binding of Control Serum Blood-Bank to Looped peptides [1] | Binding of Control serum Blood-bank to linear peptides [1] | Binding of Control serum LUMC to linear peptides [1] | Binding of Control serum LUMC to looped peptides [1] | Binding of a rabbit serum to linear peptides [2] | Binding of a rabbit serum to looped peptides [2] | Rabbit serum linear peptides [2] | Rabbit serum looped peptides [2] | Binding of Control Serum Blood-Bank to Looped peptides of the protein M of SARS-CoV Urbani [1] | Binding of Control serum Blood-bank to linear peptides of the protein M of SARS-CoV Urbani [1] | Binding of Control serum LUMC to linear peptides of the protein M of SARS-CoV Urbani [1] | Binding of Control serum LUMC to looped peptides of the protein M of SARS-CoV Urbani [1]
CNIVNVSLVKPTVYV | 0.6 | 0.7 | 0.8 | 0.8 | 0.1 | 0.5 | – | – | – | – | – | –
CQDPAGGALIARCWY | 0.9 | 0.7 | 0.3 | 0.7 | – | – | 0.5 | 0.6 | – | – | – | –
CWHTHNYDYCIPYNS | 0.6 | 0.6 | 0.7 | 0.6 | 0.1 | 0.7 | – | – | – | – | – | –
DGSSGVANPAMDPIY | 0.5 | 0.9 | 0.8 | 0.4 | 0.1 | 0.6 | – | – | – | – | – | –
DYQIGGYSEDRHSGV | 0.5 | 0.6 | 0.5 | 0.7 | 0.1 | 0.5 | – | – | – | – | – | –
EDRHSGVKDYVVVHG | 1.1 | 0.9 | 0.9 | 0.7 | 0.1 | 0.3 | – | – | – | – | – | –
EDYQIGGYSEDRHSG | 0.4 | 0.4 | 0.4 | 0.5 | 0.1 | 0.6 | – | – | – | – | – | –
FFTLGSITAQPVKID | 0.2 | 0.5 | 0.5 | 0.3 | 1.1 | 0.0 | – | – | – | – | – | –
FHPLADNKFALTCTS | 0.8 | 0.8 | 0.8 | 0.8 | – | – | 0.4 | 0.2 | – | – | – | –
FNKLVKDPPNVQIHT | 0.8 | 0.8 | 0.9 | 0.7 | 0.1 | 0.7 | – | – | – | – | – | –
GDGISTPKLKEDYQI | 0.4 | 0.6 | 0.5 | 0.4 | 0.1 | 0.5 | – | – | – | – | – | –
GGIAIAMACIVGLMW | – | – | – | – | – | – | 0.2 | 0.3 | 0.8 | 0.8 | 0.8 | 0.9
GRCDIKDLPKEITVA | – | – | – | – | – | – | 0.0 | 0.1 | 1.0 | 0.5 | 0.1 | 0.9
GVANPAMDPIYDEPT | 0.5 | 0.4 | 0.3 | 0.6 | 0.1 | 0.6 | – | – | – | – | – | –
GYSEDRHSGVKDYVV | 0.6 | 0.8 | 0.8 | 0.6 | 0.1 | 0.3 | – | – | – | – | – | –
